In the case of `CCCS(=O)(=O)NCC(O)(Cn1cncn1)c1ccc(Cl)cc1Cl` (stereo not given), the melting point (in general, the temperature of the solid-liquid transition) is 128 to 129 °C.

Compound `COC(=O)CNC(=O)c1ccc(C(=O)NS(=O)(=O)c2ccccc2)cn1` had a melting point of 125 to 126 °C.

`CCOC(=O)C=Cc1cc([N+](=O)[O-])ccc1C` yielded a melting point of 44 °C.

In turn, `O=C(NCCc1ccc(F)cc1)OCc1ccccc1` yielded a melting point of 51 to 52 °C.

In turn, `COc1ccc(-c2cc3cc(OC)cc(CC#N)c3o2)cc1` came in with a melting point of 149 to 150 °C.

In turn, `CC(=O)Nc1nc(CS(=O)(=O)c2ccc(N)cc2)cs1` showed a melting point of 135 to 137 °C.

`Cc1ccc2nc(NC(=O)c3ccc(C(C)(C)CCc4noc(=O)[nH]4)cc3)cn2c1` registered a melting point of 267 to 268 °C.

Compound `CCCCCCCCCCCCc1csc(-c2c(Cl)c(Cl)c(-c3cc(CCCCCCCCCCCC)cs3)c3nsnc23)c1` displayed a melting point of 79 to 80 °C.

In turn, `Cc1nc2c(N)nc3ccccc3c2n1CCCCS(C)=O` (stereo not given) displayed a melting point of 184 to 187 °C.

With `CCCCc1nc2ccc(C(=O)OC)cc2n1Cc1ccc(-c2ccccc2-c2nnn[nH]2)cc1`, the melting point lay in the range of 224 to 225 °C.

In turn, `O=C(C=Cc1ccc(O)c(O)c1O)OCCc1ccccc1` displayed a melting point of 144 °C.

`Cc1nnc2n1-c1ccc(C#CCn3ccc4ccccc43)cc1C(c1ccccc1F)=NC2` registered a melting point of 167 to 169 °C.

For the compound `CS(=O)(=O)N1C(=O)C2(COc3cc4c(cc32)OCO4)c2ccccc21` (stereo not given), the melting point was 215 to 217 °C.

For the compound `CCc1ccc(C#Cc2ccc(C=O)cc2)cc1`, the melting point worked out at 117 °C.

`COc1ccc(CCNC(=O)CN(c2ccccc2)c2ccccc2)cc1OC` gave a melting point of 88 to 93 °C.

The compound `COC(=O)C1(S(=O)(=O)N2CCC(=O)CC2)CCOCC1` registered a melting point of 158 to 160 °C.

In turn, `C[C@@H](n1cnc2cc(Sc3ccccc3)ccc2c1=O)[C@](O)(Cn1cncn1)c1ccc(F)cc1F` displayed a melting point of 84 to 87 °C.

For the compound `O=c1oc(Cc2ccc(Oc3ccccc3)cc2)nn1-c1ccccc1Cl`, the melting point stood at 85 °C.

The compound `COc1ccc(C(=N)NS(=O)(=O)C=Cc2ccc(Cl)c(Cl)c2)cc1OC` yielded a melting point of 205 to 210 °C.

As for `O=C1Nc2ccccc2C(=O)N2CCCC12` (stereo not given), the melting point turned out to be 174 °C.

On to `O=[N+]([O-])c1ccc(OCC(O)COc2ccc([N+](=O)[O-])cc2)cc1`, for which the melting point lay within 144 to 145 °C.

Consider `Cc1nc(-c2cccc(CN3C(=O)C4(COc5cc6c(cc54)CCO6)c4ccccc43)c2)no1` (stereo not given), for which the melting point lay within 209 to 213 °C.

The compound `Cc1cc(I)ccc1-n1c(C(F)(F)F)nn(C)c1=S` showed a melting point of 104 to 107 °C.

Compound `O=C(O)c1ccc(OC(=O)c2cccc(C34CC5CC(CC(C5)C3)C4)c2)cc1` displayed a melting point of 237 to 239 °C.

For `Cn1ccnc1-c1ccc(-c2cnc([C@H](Cc3ccccn3)N(C=O)c3cc4ccccc4[nH]3)n2C)cc1`, the melting point is 218 to 222 °C.

Regarding `CC(C)OC(=O)C=Cc1cc([N+](=O)[O-])ccc1Cl`, the melting point is 74 to 75 °C.

The compound `CN(C)C1CCc2oc3ccc(NC(=O)c4ccncc4)cc3c2C1` (stereo not given) returned a melting point of 146 to 147 °C.

As for `CC(C)(CC(N)=O)c1ccc2c(c1)OCO2`, the melting point lay in the range of 70 to 71.5 °C.

In turn, `O=C1NCCCc2cc(CCCl)sc21` gave a melting point of 156 to 158 °C.

As to `Cn1cc(CO)c(=O)c2cccc(F)c21`, the melting point is 206 to 210 °C.

As for `CC(C)Cc1nc2c(N)nc3ccccc3c2n1CCOc1ccccc1`, the melting point was 177 to 178 °C.

On to `CCCCCCCN(CCCCCS(=O)c1nc(-c2ccccc2)c(-c2ccccc2)[nH]1)C(=O)Nc1ccc(F)cc1F` (stereo not given), for which the melting point is 77 to 79 °C.

`COc1cc(CCl)ccc1OCc1nc(-c2cccc(C#N)c2)oc1C` returned a melting point of 150 to 151 °C.

`O=c1c(-c2ccccc2)c(-c2ccccc2)oc2cc(OCC(O)CNC3CC3)ccc12` (stereo not given) returned a melting point of 135 to 137 °C.

Take `COC(=O)c1ccc2c(c1)C(c1ccccn1)=CC(C)(C)O2`: the melting point is 94 to 95 °C.

For `O=Cc1nn(-c2c(Cl)cc(C(F)(F)F)cc2Cl)cc1SC(F)(F)F`, the melting point lay in the range of 79 to 81 °C.

For `CCOC(=O)c1ccc(-c2nn(Cc3ccccc3)c3ccccc23)cc1`, the melting point is 95 to 96 °C.

The compound `COC1C(O)C(CO)OC1n1cnc2c(NC3CC=CCC3c3cccs3)ncnc21` (stereo not given) gave a melting point of 86 to 89 °C.

For the compound `CCSc1nc2c(C)sc(C(=O)OC)c2n1Cc1ccc(-c2ccccc2C#N)cc1`, the melting point is 149 to 151 °C.

`CCOC(=O)c1ccc(OCCCCCCc2cccc(O)c2O)cc1O` yielded a melting point of 63 to 68 °C.

Compound `CC(C)(C)OC(=O)C(ON1C(=O)c2ccccc2C1=O)c1ccccc1` (stereo not given) showed a melting point of 121 to 122 °C.

Consider `CN(C)CCOc1ccc(/C(=C(\c2ccccc2)C(F)(F)F)c2ccccc2)cc1`, for which the melting point lay within 90 to 91 °C.

In the case of `Cc1cnc2c(c1C)CCCC2C(N)=S` (stereo not given), the melting point lay in the range of 163 to 165 °C.

`CC1(Cn2nc(-c3ccc(Br)cc3)oc2=O)Cn2cc([N+](=O)[O-])nc2O1` (stereo not given) yielded a melting point of 231 to 233 °C.

In turn, `O=C1COc2cc(Oc3ccc(O)cc3)ccc2N1` displayed a melting point of 250 to 251 °C.

In the case of `Cc1cc(C(C)(C)C)c(O)c(C)c1COC(=O)c1ccc(C(=O)OCc2c(C)cc(C(C)(C)C)c(O)c2C)cc1`, the melting point fell in the range of 227 to 230 °C.

In turn, `Cc1ccc(NC(=O)C2CC2)c(-c2nc(C(F)(F)F)cs2)c1` registered a melting point of 155 to 156 °C.

In turn, `CCOC(=O)C(=O)CC(=O)C=Cc1ccc(O)c(OC)c1` yielded a melting point of 97 to 98 °C.

`O=S(c1ccc(/C=C/c2nc(CNc3ccc(CCCCn4ccnn4)cc3)co2)cc1)C(F)(F)F` (stereo not given) showed a melting point of 121 to 124 °C.

`CNS(=O)(=O)c1cc(OC)c(OC)c(C(=O)O)c1` showed a melting point of 164 to 165 °C.

For the compound `Clc1ccc(C=Cc2ncon2)cc1`, the melting point amounted to 134 °C.

As to `C[C@]1(CN2CCN(S(=O)(=O)CCCc3ccc(Cl)cc3)CC2)Cn2cc([N+](=O)[O-])nc2O1`, the melting point lay within 150 to 151 °C.

With `C/C(=C\c1ccc(C(F)(F)F)cc1)C(=O)O`, the melting point was determined as 170 °C.

Regarding `CC(C)CNCc1cc2cc(NC(=O)c3ccc(OCC4CCOC4)cc3)ccc2n1C` (stereo not given), the melting point was in the range of 125 to 126 °C.

`O=C(O)CCCON1CCNC1=Nc1c(Cl)cccc1Cl` registered a melting point of 115 to 116 °C.

The compound `CC(=Cc1ccc(O)cc1)c1ccc2c(c1)C(C)(C)CC2(C)C` gave a melting point of 137 °C.

For the compound `CC(=O)OCCN1CN(C)C(=S)N(c2ccc(C)cc2C)C1`, the melting point fell in the range of 80 to 83 °C.

For `NC(=O)c1ccc(S(=O)(=O)NCCC2CCC(CC(=O)O)CC2)cc1` (stereo not given), the melting point lay in the range of 172 to 174 °C.

In turn, `CCCCCCCNC(=O)N(C)c1cccc(-c2ccc(CCC(=O)O)cc2)n1` displayed a melting point of 108 °C.

Regarding `Cc1oncc1-c1cccc(OC2SCC(O)C(O)C2O)c1` (stereo not given), the melting point stood at 180 °C.

Compound `Cc1[nH]c2ccc(S(=O)(=O)c3cc(F)cc(F)c3)cc2c1CCNC(=O)OC(C)(C)C` returned a melting point of 201 to 204 °C.

`O=C(O)c1ccc(OS(=O)(=O)C(F)(F)F)cc1` had a melting point of 178 to 180 °C.

As for `CCOc1ccn2nc(SCc3ccccc3)nc2n1`, the melting point fell in the range of 115 to 117 °C.

`Cc1ccc(N)cc1Nc1nccc(-c2cncnc2)n1` displayed a melting point of 164 to 167 °C.

Compound `Cc1cc(O)cc(C)c1N=Cc1ccccc1O` returned a melting point of 145 to 147 °C.

As to `Nc1ncc(-c2cc(Cl)cc(Cl)c2Cl)c(N)n1`, the melting point lay in the range of 246 to 249 °C.

In turn, `Cc1ccc(Oc2ccc(S(=O)(=O)C[C@H]([C@H]3COC(C)(C)O3)N(O)C=O)cc2)cc1` yielded a melting point of 156 to 158 °C.

The compound `CCC1CCC(NC(=O)NS(=O)(=O)c2ccc(CCNC(=O)N3CCC(C)CC3=O)cc2)CC1` (stereo not given) yielded a melting point of 178 to 180 °C.

`O=C(Nc1ccc(Cl)c(C(F)(F)F)c1)C1C(=O)C2CCC(C2)C1=O` (stereo not given) showed a melting point of 136 to 137 °C.

On to `O=C(O)C1=CC(CF)(CF)Oc2ccc(Cl)cc21`, for which the melting point is 151 to 152 °C.

With `O=c1cc(C=Cc2ccc(Cl)cc2)oc(-c2ccccc2)c1`, the melting point lay in the range of 169 to 171 °C.

Regarding `COc1cc2cnc3c(c2cc1OC)Cc1c-3cc2c(c1CN(C)C)OCO2`, the melting point is 205 to 207 °C.

The compound `CC(C)C(C(=O)Nc1n[nH]c(=S)s1)N(C(=O)OCc1ccccc1)c1ccccc1F` (stereo not given) yielded a melting point of 148 °C.

With `Cc1cc(C2=NN(C(N)=S)[C@H](C)Cc3cc4c(cc32)OCO4)cc(C)c1[N+](=O)[O-]`, the melting point lay in the range of 228 to 230 °C.

As for `CCc1c(C)nc2c(C)cccn2c1=O`, the melting point was 90 to 92 °C.

On to `CC(C)CCS(=O)(=O)CC[C@H](O)[C@@H](N)CC(C)C`, for which the melting point was 125 to 126 °C.

As to `COP(=O)(OC)C(c1ccc(F)cc1)(c1ccccc1F)c1ccccc1Cl` (stereo not given), the melting point amounted to 132 °C.

In the case of `CCOC(=O)C(C(=O)CBr)C1Cc2ccccc2C(c2ccccc2)N1` (stereo not given), the melting point was 107 to 109 °C.

Take `CC1(C(=O)O)c2ccccc2-c2ccccc21`: the melting point lay in the range of 168 to 169 °C.

`CC(=O)OCCc1ccc2sc(S(N)(=O)=O)cc2c1`: the melting point lay in the range of 120 to 122 °C.

In turn, `CC(O)c1cc([N+](=O)[O-])ccc1F` (stereo not given) displayed a melting point of under 50 °C.

The compound `OCc1ccc(-c2nn(Cc3ccccc3)c3ncncc23)o1` returned a melting point of 165 °C.

On to `Cc1cc(Cl)ccc1-c1cc(Cl)cc2c1NC(CN)CO2` (stereo not given), for which the melting point came to 102 °C.

In turn, `CCc1cc(-n2cncn2)ncn1` yielded a melting point of 75 to 76 °C.

Regarding `Nc1nc(-c2ccco2)c(C(=O)c2ccccn2)s1`, the melting point lay within 206 to 207 °C.

Compound `Cc1cc(Br)cc(C#N)c1` showed a melting point of 85 to 86 °C.

In the case of `O=C(O)CSC(CCCc1ccccc1)c1ccc(OCc2ccc3ccccc3n2)cc1` (stereo not given), the melting point lay in the range of 118 to 119 °C.

As to `Nc1cc(Br)cc(Br)c1N`, the melting point was 78 to 80 °C.

As for `COC(=O)c1ccccc1S(=O)(=O)NC(=O)c1cc(C)on1`, the melting point was 101 °C.

Compound `COC(=O)C1CN(C(=O)COc2ccccc2)c2ccccc2CN1S(=O)(=O)c1ccc(OC)cc1` (stereo not given) displayed a melting point of 151 to 153 °C.

Source of the values: a melting point compilation (Tetko et al.; mined from patent text by program, amines drawn as free bases though some values may be those of a salt).
